In brackets after ≈: the same amount, converted by molar mass. Read-outs that look alike come from different tables or passages of the source.

Six molecules from patent US9957247B2, “SecA inhibitors and methods of making and using thereof” (Georgia State University Research Foundation, Inc., priority 2012, dated 2018) can be followed below.

For assay [1], the target named is T1, EcSecA (Escherichia coli, UniProt P10408). Description: cell-based.
Target sequence in this assay (P10408 whole entry): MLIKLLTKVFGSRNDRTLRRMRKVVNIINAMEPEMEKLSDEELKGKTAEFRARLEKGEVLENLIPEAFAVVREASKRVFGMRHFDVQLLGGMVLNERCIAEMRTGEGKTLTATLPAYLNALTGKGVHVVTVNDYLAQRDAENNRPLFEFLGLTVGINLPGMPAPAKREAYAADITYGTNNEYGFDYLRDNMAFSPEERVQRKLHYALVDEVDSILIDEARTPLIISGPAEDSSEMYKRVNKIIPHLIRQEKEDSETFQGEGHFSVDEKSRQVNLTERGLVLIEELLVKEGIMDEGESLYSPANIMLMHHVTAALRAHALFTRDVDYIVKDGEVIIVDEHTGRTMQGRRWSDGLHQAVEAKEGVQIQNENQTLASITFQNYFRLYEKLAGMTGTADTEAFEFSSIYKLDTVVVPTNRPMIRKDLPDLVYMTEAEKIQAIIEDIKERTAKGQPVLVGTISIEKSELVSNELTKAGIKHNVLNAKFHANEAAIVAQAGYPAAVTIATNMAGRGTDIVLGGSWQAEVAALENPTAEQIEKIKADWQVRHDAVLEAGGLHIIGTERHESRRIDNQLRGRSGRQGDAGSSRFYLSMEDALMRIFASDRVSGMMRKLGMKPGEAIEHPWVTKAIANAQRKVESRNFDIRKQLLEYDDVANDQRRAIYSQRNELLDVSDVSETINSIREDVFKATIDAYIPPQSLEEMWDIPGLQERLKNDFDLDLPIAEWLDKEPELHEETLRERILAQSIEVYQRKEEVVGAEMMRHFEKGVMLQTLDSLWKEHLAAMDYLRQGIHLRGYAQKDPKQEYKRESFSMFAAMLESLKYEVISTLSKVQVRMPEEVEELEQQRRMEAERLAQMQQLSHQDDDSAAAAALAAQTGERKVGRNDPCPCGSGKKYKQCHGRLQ
In assay [2] the target is T2, BsSecA (Bacillus subtilis, UniProt P28366). Description: cell-based. Details: species or system B. subtilis.
T2 sequence (P28366 whole entry): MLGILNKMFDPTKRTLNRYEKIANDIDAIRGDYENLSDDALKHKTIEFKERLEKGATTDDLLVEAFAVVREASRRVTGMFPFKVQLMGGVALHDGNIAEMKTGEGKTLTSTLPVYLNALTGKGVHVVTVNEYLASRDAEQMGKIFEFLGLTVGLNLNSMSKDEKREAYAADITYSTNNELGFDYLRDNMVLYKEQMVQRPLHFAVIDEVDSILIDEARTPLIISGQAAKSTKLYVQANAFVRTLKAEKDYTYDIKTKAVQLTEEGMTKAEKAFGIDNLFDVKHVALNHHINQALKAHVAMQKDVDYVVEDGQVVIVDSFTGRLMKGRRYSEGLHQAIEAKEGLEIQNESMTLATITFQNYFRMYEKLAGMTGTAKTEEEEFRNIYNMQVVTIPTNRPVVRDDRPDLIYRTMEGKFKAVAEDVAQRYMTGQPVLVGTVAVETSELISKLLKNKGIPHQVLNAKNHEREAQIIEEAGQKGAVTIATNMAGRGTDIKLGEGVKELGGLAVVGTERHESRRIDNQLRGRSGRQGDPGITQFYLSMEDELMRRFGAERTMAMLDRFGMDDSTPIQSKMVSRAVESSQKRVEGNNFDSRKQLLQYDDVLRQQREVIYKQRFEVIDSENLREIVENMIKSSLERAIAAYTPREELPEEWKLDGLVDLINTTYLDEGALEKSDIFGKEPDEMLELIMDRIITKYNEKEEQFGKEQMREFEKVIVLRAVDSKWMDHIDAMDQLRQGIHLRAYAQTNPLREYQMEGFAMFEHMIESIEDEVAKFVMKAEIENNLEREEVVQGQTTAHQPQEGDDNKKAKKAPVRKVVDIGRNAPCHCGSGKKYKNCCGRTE
The subject of a further assay is B. subtilis 168. Description: Bacteriostatic effect, liquid microdilution, B. subtilis 168. In kind it is cell-based. As to conditions: Bacillus subtilis, Example 2. In general terms: Broth dilution looks for growth in wells or tubes with falling amounts of substance.
In the next assay the target is EcSecA N68 (Escherichia coli, UniProt P10408). Description: biochemical. It counts as biochemical, E. coli.
Chain of EcSecA N68 (P10408 1-610): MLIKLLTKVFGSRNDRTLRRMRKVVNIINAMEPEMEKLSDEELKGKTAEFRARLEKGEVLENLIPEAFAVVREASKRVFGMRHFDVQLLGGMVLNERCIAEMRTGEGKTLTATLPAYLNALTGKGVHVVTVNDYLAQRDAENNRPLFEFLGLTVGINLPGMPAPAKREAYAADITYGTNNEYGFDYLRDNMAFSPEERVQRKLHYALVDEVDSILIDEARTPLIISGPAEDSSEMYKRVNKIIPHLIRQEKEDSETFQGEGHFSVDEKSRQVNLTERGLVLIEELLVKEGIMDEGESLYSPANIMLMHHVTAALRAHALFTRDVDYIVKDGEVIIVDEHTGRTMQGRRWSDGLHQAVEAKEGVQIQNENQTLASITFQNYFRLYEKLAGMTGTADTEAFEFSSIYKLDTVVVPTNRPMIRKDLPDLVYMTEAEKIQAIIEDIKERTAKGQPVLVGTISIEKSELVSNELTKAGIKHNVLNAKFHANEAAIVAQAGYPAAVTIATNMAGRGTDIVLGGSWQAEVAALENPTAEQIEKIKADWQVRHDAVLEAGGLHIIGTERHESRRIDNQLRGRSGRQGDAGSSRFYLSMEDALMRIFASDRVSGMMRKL
The test system of the next assay is B. anthracis Sterne. Description: microbe, parasite or virus in culture. The note with it: Bacillus anthracis, read-out: Bacteriostatic MIC95, B. anthracis Sterne. It counts as cell-based.
For the next assay, the target named is T3, SaSecA1 (Staphylococcus aureus, UniProt O06446).
T3 sequence (O06446 1-843): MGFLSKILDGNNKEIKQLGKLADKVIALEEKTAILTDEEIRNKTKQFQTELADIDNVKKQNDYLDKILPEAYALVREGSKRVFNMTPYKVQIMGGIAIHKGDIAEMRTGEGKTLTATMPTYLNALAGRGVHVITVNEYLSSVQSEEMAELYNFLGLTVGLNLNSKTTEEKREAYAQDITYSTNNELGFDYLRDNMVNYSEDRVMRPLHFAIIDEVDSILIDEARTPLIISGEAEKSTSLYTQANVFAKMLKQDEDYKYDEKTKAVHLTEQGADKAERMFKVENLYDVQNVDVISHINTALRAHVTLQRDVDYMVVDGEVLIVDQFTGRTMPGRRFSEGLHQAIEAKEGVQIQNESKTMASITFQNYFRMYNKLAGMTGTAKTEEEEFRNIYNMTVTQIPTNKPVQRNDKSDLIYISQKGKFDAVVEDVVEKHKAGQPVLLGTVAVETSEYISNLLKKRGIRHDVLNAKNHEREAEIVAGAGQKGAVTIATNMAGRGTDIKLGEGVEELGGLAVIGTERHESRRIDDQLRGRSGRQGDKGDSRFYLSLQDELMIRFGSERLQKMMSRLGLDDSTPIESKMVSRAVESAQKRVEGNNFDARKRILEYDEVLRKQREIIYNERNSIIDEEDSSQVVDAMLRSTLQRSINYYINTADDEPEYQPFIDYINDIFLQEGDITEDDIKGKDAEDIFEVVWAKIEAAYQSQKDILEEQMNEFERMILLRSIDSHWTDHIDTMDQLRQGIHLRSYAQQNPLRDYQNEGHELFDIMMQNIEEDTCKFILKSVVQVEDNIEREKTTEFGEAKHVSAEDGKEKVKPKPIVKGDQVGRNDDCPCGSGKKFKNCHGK
Description: cell-based.

Assay [3] has as its target T2, BsSecA. Description: biochemical. In kind it is biochemical, B. subtilis.
For assay [4], the target named is T1, EcSecA. Kind of assay: biochemical. Details: species or system E. coli. The note with it: IC50, Intrinsic ATPase, Table 1, full-length EcSecA.
Target sequence in this assay (P10408 whole entry): as the sequence (P10408 whole entry) above
A further assay concerns the target SpSecA (Streptococcus pyogenes, UniProt Q99Y96). In kind it is cell-based. The note with it: read-out: IC50, Ion Channel activity, SpSecA.
Assay [5] addresses T1, EcSecA. Description: biochemical. The note with it: IC50, Protein Translocation, Table 1.
Target sequence in this assay (P0AG99 whole entry): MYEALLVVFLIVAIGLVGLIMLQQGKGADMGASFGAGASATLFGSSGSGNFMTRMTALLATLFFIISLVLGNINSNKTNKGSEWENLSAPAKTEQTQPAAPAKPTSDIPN
Target sequence in this assay (P10408 whole entry): as the sequence (P10408 whole entry) above
Target sequence in this assay (P0AGA2 whole entry, further chain): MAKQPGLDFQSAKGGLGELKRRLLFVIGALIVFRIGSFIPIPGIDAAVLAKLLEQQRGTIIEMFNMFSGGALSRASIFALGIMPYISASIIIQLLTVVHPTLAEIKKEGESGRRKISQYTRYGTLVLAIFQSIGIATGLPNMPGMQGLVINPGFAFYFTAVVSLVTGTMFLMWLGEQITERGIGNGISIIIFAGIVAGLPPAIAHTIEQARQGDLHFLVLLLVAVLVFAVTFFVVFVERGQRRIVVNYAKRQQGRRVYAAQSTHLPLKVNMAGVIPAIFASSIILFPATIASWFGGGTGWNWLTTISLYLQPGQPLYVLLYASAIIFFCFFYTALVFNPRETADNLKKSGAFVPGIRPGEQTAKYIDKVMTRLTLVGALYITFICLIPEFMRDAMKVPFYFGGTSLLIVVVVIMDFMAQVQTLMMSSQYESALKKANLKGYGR
Target sequence in this assay (P0AG96 whole entry, further chain): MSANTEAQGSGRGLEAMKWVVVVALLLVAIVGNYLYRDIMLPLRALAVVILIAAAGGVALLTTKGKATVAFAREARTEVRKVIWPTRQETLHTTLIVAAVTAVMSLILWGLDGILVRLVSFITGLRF
The target in the next assay is BaSecA1 (Bacillus anthracis, UniProt Q81X26). Description: cell-based. The note with it: IC50, Ion Channel activity, BGaSecA 1.
Chain of BaSecA1 (Q81X26 whole entry, looked up): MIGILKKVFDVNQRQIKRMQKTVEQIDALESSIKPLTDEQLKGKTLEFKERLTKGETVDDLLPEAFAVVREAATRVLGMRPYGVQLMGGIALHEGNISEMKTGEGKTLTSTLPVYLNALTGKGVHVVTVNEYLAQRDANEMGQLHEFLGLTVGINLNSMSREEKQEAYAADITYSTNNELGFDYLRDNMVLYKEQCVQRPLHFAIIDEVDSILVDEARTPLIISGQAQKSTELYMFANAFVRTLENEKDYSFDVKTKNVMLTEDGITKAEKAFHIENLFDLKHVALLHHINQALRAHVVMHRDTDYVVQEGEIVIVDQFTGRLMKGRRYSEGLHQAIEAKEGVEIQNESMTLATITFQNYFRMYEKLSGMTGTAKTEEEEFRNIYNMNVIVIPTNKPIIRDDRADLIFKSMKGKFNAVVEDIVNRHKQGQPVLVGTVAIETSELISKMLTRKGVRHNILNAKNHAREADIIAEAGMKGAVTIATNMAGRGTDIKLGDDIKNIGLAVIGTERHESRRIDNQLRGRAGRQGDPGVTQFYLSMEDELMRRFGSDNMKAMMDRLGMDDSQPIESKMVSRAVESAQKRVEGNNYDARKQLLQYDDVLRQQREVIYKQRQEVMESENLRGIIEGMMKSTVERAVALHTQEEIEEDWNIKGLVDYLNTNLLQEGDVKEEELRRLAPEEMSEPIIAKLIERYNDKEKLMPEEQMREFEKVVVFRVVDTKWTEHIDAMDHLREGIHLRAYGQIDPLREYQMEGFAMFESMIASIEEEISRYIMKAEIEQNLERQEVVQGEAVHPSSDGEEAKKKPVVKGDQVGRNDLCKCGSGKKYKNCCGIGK
The target of the next assay is MsSecA (Mycolicibacterium smegmatis, UniProt P71533). Kind of assay: SecA-liposomes ion-channel activity in oocytes, MsSecA. As to conditions: Table 1. It counts as cell-based.
Assay [6] addresses T1, EcSecA. Kind of assay: biochemical. As to conditions: IC50, Translocation ATPase, Table 1.
Target sequence in this assay (P0AG99 whole entry): as the sequence (P0AG99 whole entry) above
Target sequence in this assay (P10408 whole entry): as the sequence (P10408 whole entry) above
Target sequence in this assay (P0AGA2 whole entry, further chain): as the sequence (P0AGA2 whole entry, further chain) above
Target sequence in this assay (P0AG96 whole entry, further chain): as the sequence (P0AG96 whole entry, further chain) above
Another assay concerns the target BsSecA2. As to conditions: read-out: IC50, Intrinsic ATPase, BsSecA2; Table 1.
The subject of a further assay is S. aureus Mu50. Kind of assay: Bacteriostatic effect, S. aureus Mu50. The note with it: Staphylococcus aureus.
Another assay relates to S. pyogenes, MGAS5005. Description: MIC95, S. pyogenes MGAS5005. It counts as cell-based. As to conditions: Streptococcus pyogenes, MGAS5005; read-out: MIC95, S. pyogenes MGAS5005.
The target in a further assay is MtbSecA (Mycobacterium tuberculosis, UniProt P9WGP5). Description: cell-based.
The target of another assay is T4, SaSecA2 (Staphylococcus aureus, UniProt Q2FUW6).
T4 sequence (Q2FUW6 1-796): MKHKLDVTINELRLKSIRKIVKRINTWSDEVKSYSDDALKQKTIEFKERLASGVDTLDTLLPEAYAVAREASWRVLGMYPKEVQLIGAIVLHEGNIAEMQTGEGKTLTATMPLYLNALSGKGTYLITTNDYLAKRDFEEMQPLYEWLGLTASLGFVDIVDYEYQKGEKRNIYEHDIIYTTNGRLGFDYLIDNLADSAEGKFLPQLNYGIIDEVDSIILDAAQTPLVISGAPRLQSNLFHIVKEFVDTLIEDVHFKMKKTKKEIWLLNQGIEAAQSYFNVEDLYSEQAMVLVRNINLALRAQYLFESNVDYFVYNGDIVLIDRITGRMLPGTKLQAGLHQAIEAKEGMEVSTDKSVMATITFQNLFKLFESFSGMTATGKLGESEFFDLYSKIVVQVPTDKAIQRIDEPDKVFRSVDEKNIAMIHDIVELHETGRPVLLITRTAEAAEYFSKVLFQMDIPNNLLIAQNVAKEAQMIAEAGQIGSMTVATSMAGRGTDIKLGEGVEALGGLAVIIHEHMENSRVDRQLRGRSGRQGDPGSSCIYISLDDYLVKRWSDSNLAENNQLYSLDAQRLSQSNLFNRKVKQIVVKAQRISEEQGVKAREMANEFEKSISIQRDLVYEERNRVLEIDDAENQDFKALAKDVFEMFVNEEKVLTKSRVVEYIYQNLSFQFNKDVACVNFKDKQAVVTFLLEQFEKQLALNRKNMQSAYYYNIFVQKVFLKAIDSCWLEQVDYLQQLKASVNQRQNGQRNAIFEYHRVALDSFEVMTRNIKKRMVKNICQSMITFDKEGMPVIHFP
Description: ATPase activity assay (malachite green), SaSecA2.

The test system of assay [7] is S. aureus deletion strains (NorA−, MepA−) and strains (NorA++, MepA++) with over-expressed efflux pumps. Kind of assay: Antimicrobial effect with deletion or over expression of efflux pumps in S. aureus. The note with it: for Bactericidal (killing) effect with over expression of efflux pumps / MIC (bacteriostatic) with over expression of efflux pumps: wild type, NorA−/MepA− and NorA++/MepA++ strains.

In the next assay the test system is S. aureus 6538. Kind of assay: Bacteriostatic effect, S. aureus 6538. The note with it: Staphylococcus aureus, 6538, read-out: Bacteriostatic effect, MIC, S. aureus 6538.
The target in a further assay is PaSecA (Pseudomonas aeruginosa, UniProt Q9LCT3). Description: cell-based. It counts as cell-based. The note with it: IC50, Ion Channel activity, PASecA, Table 1.
Another assay deals with S. aureus N315. Description: Bacteriostatic effect, S. aureus N315. As to conditions: Staphylococcus aureus, N315, read-out: Bacteriostatic effect, MIC, S. aureus N315.
Assay [8] has as its system secretion of α-hemolysin, enterotoxin B and TSST-1 by S. aureus Mu50. It counts as cell-based.
A further assay relates to S. aureus Mu3. Description: Bacteriostatic effect, S. aureus Mu3. As to conditions: Staphylococcus aureus, MU3, read-out: Bacteriostatic effect, MIC, S. aureus Mu3.
The subject of the next assay is S. aureus 8325-4. Description: Bacteriostatic effect, S. aureus 8325-4 (WT). As to conditions: Staphylococcus aureus, 83254, read-out: Bacteriostatic effect, MIC, WT 8325-4.
Assay [9] is described as follows: Bactericidal effect in the dark and under light (photooxidation). It counts as cell-based. The note with it: under light versus dark.
Where [10] appears, read: Ion channel, IC50, BsSecA, Table 5.
Setting [11] is: IC50, Ion Channel activity, BsSecA, Table 1.
Where [12] appears, read: MU50, read-out: Bacteriostatic MIC95, S. aureus Mu50, Table 2.
The mark [13] stands for this setting: MU50, read-out: MIC95 against drug resistant S. aureus Mu50.
Setting [14] is: IC50, Intrinsic ATPase, SaSecA2, Table 1.

Chain of SpSecA (Q99Y96 whole entry): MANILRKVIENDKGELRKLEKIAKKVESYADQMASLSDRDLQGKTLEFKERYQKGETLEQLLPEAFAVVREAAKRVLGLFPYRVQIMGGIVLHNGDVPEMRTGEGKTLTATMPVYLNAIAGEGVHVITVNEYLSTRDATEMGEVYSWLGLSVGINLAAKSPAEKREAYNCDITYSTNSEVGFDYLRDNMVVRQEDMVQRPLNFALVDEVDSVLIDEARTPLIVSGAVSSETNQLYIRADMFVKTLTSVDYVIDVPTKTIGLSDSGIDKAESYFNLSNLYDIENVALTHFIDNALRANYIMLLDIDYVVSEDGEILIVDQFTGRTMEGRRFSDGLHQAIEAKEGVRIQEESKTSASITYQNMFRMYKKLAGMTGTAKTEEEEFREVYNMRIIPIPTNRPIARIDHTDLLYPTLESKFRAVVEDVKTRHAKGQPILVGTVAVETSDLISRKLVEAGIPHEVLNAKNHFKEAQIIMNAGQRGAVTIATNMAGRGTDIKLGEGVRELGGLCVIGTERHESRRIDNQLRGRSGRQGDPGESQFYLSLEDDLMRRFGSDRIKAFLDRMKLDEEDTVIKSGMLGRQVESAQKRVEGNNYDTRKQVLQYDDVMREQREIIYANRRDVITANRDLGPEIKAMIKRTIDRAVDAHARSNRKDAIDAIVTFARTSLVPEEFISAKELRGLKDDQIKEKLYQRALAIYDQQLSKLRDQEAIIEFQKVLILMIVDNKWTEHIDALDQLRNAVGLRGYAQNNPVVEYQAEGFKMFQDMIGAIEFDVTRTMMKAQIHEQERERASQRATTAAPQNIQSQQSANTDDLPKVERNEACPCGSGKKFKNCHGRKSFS

The term IC50 denotes the concentration that gives 50% inhibition. With `Oc1cc2c(cc1I)C(C1CCCC1)c1cc(I)c(O)c(I)c1O2` (stereo not drawn) [Compound 23c], the IC50 against EcSecA [1] was 2.2 µM; against BsSecA [2] (setting [10]), 2.8 µM. For the same molecule, the MIC against B. subtilis 168 is 6 µM (≈ 3.96 µg/mL).

Consider `CC(C)C1c2cc(I)c(O)c(I)c2Oc2c1cc(I)c(O)c2I` [Compound 23d, 2,4,5,7-Tetraiodo-9-isopropyl-9H-xanthene-3,6-diol], for which the IC50 amounted to 2.8 µM on EcSecA [1] and 2.5 µM against BsSecA [2] (setting [10]). This molecule also returned an MIC against B. subtilis 168 of 6 µM (≈ 4.56 µg/mL).

With `CN(C)c1ccc2c(c1)Oc1cc(N(C)C)ccc1C2C1CCCC1` [Compound 30, 9-Cyclopentyl-N3,N3,N6,N6-tetramethyl-9H-xanthene-3,6-diamine], the “Inhibition of EcSecA N68 ATPase, initial screening” value at EcSecA N68 (100 μM, FIG. 1) is listed as “weak or no activity”.

Consider `O=C(O)c1ccccc1-c1c2ccc(=O)c(I)c-2oc2c(I)c(O)ccc12` [DI, Diiodofluorescein, reference compound], for which the IC50 on EcSecA N68 (read-out: IC50, EcN68 SecA ATPase (unregulated ATPase)) was found to be 30 µM.

As for `CSc1nc(Sc2nnc(-c3cc(C(F)(F)F)cc(C(F)(F)F)c3)[nH]2)cc(Sc2nnc(-c3cc(C(F)(F)F)cc(C(F)(F)F)c3)[nH]2)n1` [SCA-21], the MIC stood at 3 µg/mL (≈ 4.01 µM) in the assay with B. anthracis Sterne; 1.5 µg/mL with S. aureus Mu50 (setting [12]); 1.5 µM in the assay on S. aureus Mu50 (setting [13]); 0.39 µM (≈ 0.292 µg/mL) in the assay on S. pyogenes, MGAS5005. For the same molecule, the IC50 on SaSecA1 is 1.6 µM; against BsSecA [3], greater than 100 µM; on EcSecA [4], 32 µM; at SpSecA, 1 µM; against EcSecA [5], 21 µM; against BaSecA1, 1.5 µM. In addition, the IC50 was 2.4 µM against EcSecA [1]; 2.6 µM on BsSecA [2] (setting [11]); 2 µM against MsSecA; 20 µM on EcSecA [6]; 45 µM on BsSecA2; 2 µM at MtbSecA. For the same molecule, the IC50 is 18 µM against EcSecA N68 and 43 µM against SaSecA2 (setting [14]). Moreover, the “Bactericidal (killing) effect with over expression of efflux pumps” value in assay [7] is reported as “not attenuated”. Besides, the “MIC (bacteriostatic) with over expression of efflux pumps” value in assay [7] was “did not increase”.

As for `Oc1ccc2c(c1)Oc1cc(O)ccc1C2C1CCCC1` [SCA-41], the MIC in the assay on B. anthracis Sterne was found to be 1.1 µg/mL (≈ 3.9 µM); in the assay on S. aureus 6538, 10.6 µg/mL (≈ 37.5 µM); in the assay on S. aureus N315, 14.1 µg/mL (≈ 49.9 µM); with S. aureus Mu50 (setting [12]), 1.7 µg/mL; with S. aureus Mu50 (MU50, read-out: Bacteriostatic effect MIC, S. aureus Mu50, Table 10 and Example 4), 8.8 µg/mL; in the assay on S. aureus Mu50 (MU50, read-out: Bacteriostatic effect, MIC, S. aureus Mu50, Table 8) it was 8.8 µg/mL. Moreover, the MIC in the assay on S. aureus Mu50 (setting [13]) was 1.7 µM; with S. aureus Mu3 it was 14.1 µg/mL (≈ 49.9 µM); in the assay with S. aureus 8325-4, 11.8 µg/mL (≈ 41.8 µM). Moreover, the half-inhibitory concentration (IC50) amounted to 30 µM at BsSecA [3]; 30 µM against EcSecA [4]; 3 µM on SpSecA; 55 µM at EcSecA [5]; 3.6 µM against PaSecA; 3.8 µM against BaSecA1. The IC50 against EcSecA [1] amounted to 3.4 µM; against BsSecA [2] (setting [11]), 3 µM; at MsSecA it was 3.5 µM; on EcSecA [6], 15 µM; at BsSecA2, 30 µM; on MtbSecA, 3.2 µM. Moreover, the half-maximal inhibitory concentration (IC50) on EcSecA N68 came to 8 µM; on SaSecA2 (IC50, ATPase activity, SaSecA2, Table 7), 32.5 µM; against SaSecA2 (setting [14]), 6 µM. Further, the “Amount of α-hemolysin, enterotoxin B, and TSST-1 in the supernatant” value in [8] was “significantly decreased”. The “Change of MIC on overexpression or deletion of NorA or MepA” value in assay [7] is reported as “did not significantly change”. In addition, the “Bactericidal (killing) effect with over expression of efflux pumps” value in assay [7] was “not attenuated”. In addition, the “MIC (bacteriostatic) with over expression of efflux pumps” value in assay [7] was “did not increase”. The “Effect of light on the bactericidal effect” value in [9] is “not affected by light”.
